Results: PMC10821532, “Sex and Cross-Sex Testosterone Treatment Alters Gamma-Hydroxybutyrate Acid Toxicokinetics and Toxicodynamics in Rats” (Pharmaceutics, 2024)

Tested on: Sprague Dawley (SD) rats
Test: Sedative/hypnotic effect (sleep time, RRR-LRR) after i.v. GHB
Type: in vivo
Conditions: 1500 mg/kg GHB iv
Description: Jugular vein cannulas were surgically implanted under anesthesia with ketamine/xylazine. Cannulas were flushed daily with heparinized saline to maintain patency. Rats were allowed a minimum of 72 h for recovery from surgery before the experiments were conducted. GHB was administered intravenously as a 1000 mg/kg i.v. bolus or 1500 mg/kg iv bolus with or without AR-C155858 (1 mg/kg i.v. bolus) via a jugular vein cannula to the animals at 13 weeks of age (N = 5–7 per group). Rats were dosed in metabolic cages with ad libitum access to water to allow for the concurrent collection of blood and urine samples for up to 8 h. GHB was administered as a 300 mg/mL solution in sterile water, and the time of administration was considered as time 0. AR-C155858 was administered as a 1 mg/mL solution in 10% cyclodextrin in normal saline 5 min after GHB administration. Blood samples (200 μL) were taken from the jugular vein cannula at different time points: 5, 10, 20, 30, 60, 90, 120, 180, 240, 270, 300, and 330 min for 1000 mg/kg and 10, 30, 60, 90, 120, 180, 240, 270, 300, 330, 360, and 390/480 min for 1500 mg/kg bolus with or without AR-C155858. Plasma samples were separated by centrifugation and stored at −20 °C. Urine samples were collected at 120, 240, and 360 min for 1000 mg/kg and 120, 240, and 390/480 min for 1500 mg/kg bolus with or without AR-C155858 post-dose; the total urine volume was determined, and the samples were stored at −20 °C.
The sedative/hypnotic effects (sleep time) were determined, as described in a previous publication. The sedative/hypnotic duration effect of GHB was determined as the difference between the offset of the sedative/hypnotic effect (RRR) and the onset of the sedative/hypnotic effect (LRR).

SMILES: O=C(O)CCCO [GHB, Γ-hydroxybutyric acid]
- Sleep time (RRR–LRR), average (testosterone-treated CST rats): 422.5 min
- Sleep time, two individual rats (two of the testosterone-treated CST rats): ~ 600 min
